Measured values as given in patent publication US20040152191A1 (priority 2001, published 2004).

Tests used:
[1] = test system: dendritic cells derived from human monocytes; assay: Effect of LCOS 1013 on maturation of dendritic cells derived from human monocytes, phenotype by flow cytometry (Examples 11, 12); format: cell-based
Text: The purified monocytes (more than 90%) were placed in culture in RPMI medium containing 10% AB human serum in the presence of growth factors GM-CSF (200 U/ml) and IL-4 (500 U/ml) for 6 days in order to induce the differentiation of the monocytes into immature dendritic cells.
The phenotype of the cells thus generated (after 8 days of culture) was examined by flow cytometry. The expression of the marker specific for maturation of the dendritic cells (CD83), of the co-stimulatory molecules CD80, CD86, CD40, of the adhesion molecule CD54, of the class II HLA-DR molecule of the major histocompatibility complex was analyzed. The expression of the CD1a molecule, specific marker of the Langerhans cells, immature dendritic cells, was also tested.

[2] = test system: dendritic cells derived from human monocytes; assay: Maturation of dendritic cells from human monocytes, surface markers by flow cytometry (Example 1); format: cell-based; settings: D8, TNF-alpha 200 IU/ml
Method: Peripheral blood is taken from the subject concerned. This blood is then centrifuged for 20 minutes at 200 g so as to diminish the contamination of the peripheral blood cells by platelets. The upper part containing most of the platelets and the plasma is carefully removed before the mononucleated cells are purified by centrifuging them on a Ficoll separation gradient, the density of which is 1.077. The layer of mononucleated cells is recovered, then washed twice with PBS buffer and deposited on a gradient containing 4 discontinuous densities of Percoll in order to isolate the monocytes. This gradient is constituted by concentrations of Percoll in isotonic solution of 75% (6.5 ml), 50.5% (15 ml), 40% (3.5 ml) and 30% (3 ml) in a Dulbecco medium without magnesium nor calcium and containing 5% human serum. 75 to 100 millions of cells are thus deposited in each tube and centrifuged at 1000 g during 25 minutes at 4° C. The low density cells, principally the monocytes, are harvested at the interface between the concentrations 40% and 50.5%, and washed twice with PBS. They are then resuspended in a culture medium, then deposited on culture plates containing 6 wells at a density of 5×10^6 cells per well in a final volume of 3 ml and left to adhere for 1 hour at 37° C. This adhesion step can be replaced by an additional purification of the monocytes by means of a negative purification system using a mixture of monoclonal antibodies combining an anti-CD3, CD7, CD19, CD45A, CD56 and anti-IgG with the aid of a Macs type microbead system (Miltenyi Biotec).
The cells are then placed in culture in culture wells at 37° C. under 5% CO2. The medium which consists of RPMI contains 200 IU/ml of recombinant human GM-CSF and 500 IU/ml of recombinant human IL-4 in a final volume of 6 ml. On day 3 and day 5, the cultures are renewed by removing 3 ml and adding 3 ml of fresh medium with the cytokines. […] The cells are harvested on day 8, washed and cultivated in the absence of stimulation for a further 3 days.
At the end of the culture period, the quality of the maturation is assessed by measuring the expression of the molecules CD80, 83, 86, 14, 1a, HLA-DR at the surface of the cells.

[3] = Donor 1, TNF-α 200 U/ml or LCOS 1013 25 μg/ml for 48 hours
[4] = Donor 2, TNF-α 200 U/ml or LCOS 1013 25 μg/ml for 48 hours
[5] = Donor 3, TNF-α 200 U/ml or LCOS 1013 25 μg/ml for 48 hours
[6] = Example 12, single donor, TNF-α 200 U/ml

## TNF-α
[1]; [3]
  CD1a, MFI: 28
  CD1a, percentage of expression: 13.2%
  CD40, MFI: (1084)
  CD40, percentage of expression: 99.4%
  CD54, MFI: (195)
  CD54, percentage of expression: 98.4%
  CD80, MFI: (85)
  CD80, percentage of expression: 69.7%
  CD83, MFI: (132)
  CD83, percentage of expression: 91%
  CD86, MFI: (209)
  CD86, percentage of expression: 99.5%
  HLA-DR, MFI: (803)
  HLA-DR, percentage of expression: 99.5%
[1]; [4]
  CD1a, MFI: 215
  CD1a, percentage of expression: 20.6%
  CD40, MFI: (1104)
  CD40, percentage of expression: 99.2%
  CD54, MFI: (355)
  CD54, percentage of expression: 97.8%
  CD80, MFI: (89)
  CD80, percentage of expression: 55.1%
  CD83, MFI: (221)
  CD83, percentage of expression: 88%
  CD86, MFI: (299)
  CD86, percentage of expression: 99.1%
  HLA-DR, MFI: (1108)
  HLA-DR, percentage of expression: 98.6%
[1]; [5]
  CD1a, expression: Neg.
  CD40, MFI: (918)
  CD40, percentage of expression: 98.7%
  CD54, MFI: (154)
  CD54, percentage of expression: 95.9%
  CD80, MFI: (65)
  CD80, percentage of expression: 48.7%
  CD83, MFI: (108)
  CD83, percentage of expression: 91.8%
  CD86, MFI: (209)
  CD86, percentage of expression: 98.5%
  HLA-DR, MFI: (768)
  HLA-DR, percentage of expression: 98.9%
[1]; [6]
  CD40, percentage of expression: 83.44%
  CD40, second line of cell (MFI): 289.54
  CD54, percentage of expression: 87.12%
  CD54, second line of cell (MFI): 137.49
  CD80, percentage of expression: 0.49%
  CD80, second line of cell (MFI): 95.04
  CD83, percentage of expression: 70.02%
  CD83, second line of cell (MFI): 65.55
  CD86, percentage of expression: 94.44%
  CD86, second line of cell (MFI): 180.81
  HLA-DR, percentage of expression: 92.12%
  HLA-DR, second line of cell (MFI): 877.54
[2]; experiment a
  CD14, % of labelled cells: 0.87%
  CD40, MFI: 1603
  CD54, % of labelled cells: 97.4%
  CD54, MFI: 295
  CD80, % of labelled cells: 62.1%
  CD80, MFI: 129
  CD83, % of labelled cells: 84.5%
  CD83, MFI: 173
  CD86, % of labelled cells: 98.8%
  CD86, MFI: 326
  HLA-DQ, % of labelled cells: 84.3%
  HLA-DQ, MFI: 157
  HLA-DR, % of labelled cells: 98.9%
  HLA-DR, MFI: 1225
[2]; experiment b
  CD1a, % of labelled cells: 0.21%
  CD14, % of labelled cells: 0.61%
  CD40, % of labelled cells: 99.6%
  CD40, MFI: 1728
  CD54, % of labelled cells: 95.6%
  CD54, MFI: 255
  CD80, % of labelled cells: 70.5%
  CD80, MFI: 93.5
  CD83, % of labelled cells: 89.5%
  CD83, MFI: 196
  CD86, % of labelled cells: 99.5%
  CD86, MFI: 273
  HLA-DQ, % of labelled cells: 84.2%
  HLA-DQ, MFI: 183
  HLA-DR, % of labelled cells: 99.1%
  HLA-DR, MFI: 946
[2]; experiment c
  CD14, % of labelled cells: 3.27%
  CD40, % of labelled cells: 99.3%
  CD40, MFI: 1480
  CD54, % of labelled cells: 98.2%
  CD54, MFI: 249
  CD83, % of labelled cells: 89%
  CD83, MFI: 166
  CD86, % of labelled cells: 99.5%
  CD86, MFI: 284
  HLA-DR, % of labelled cells: 99.4%
  HLA-DR, MFI: 694
